# Source: patent publication US4003945A, “Novel cyclopropanecarboxylates” (Sumitomo Chemical Company, Limited, priority 1973, dated 1977)
# Where two headings read alike, the source gives them in different places.
# Columns and labels:
# [1] = tested on: 3rd or 4th instar larvae of tobacco cut worm; assay: Diluted emulsion sprayed by settling tower on larvae (Example X); assay type: in vivo; settings: emulsion diluted to 50 times, 1 ml
# Method: Ten of the 3rd or 4th instar larvae of tobacco cut worm were put into a petri dish of 17 cm in diameter.
# One ml of the present compound (4, 11, 28, 92, 94, 95, 109, 111) in form of an emulsion obtained in Example X, which were diluted to 50 times with water, were sprayed by means of a settling tower. The said larvae were removed into another petri dish with the leaves of the chinese cabbage leaves. Observation was made after 48 hrs. As a result, more than 90% of the larvae were dead in each case.
# [2] = Oral acute toxicity in male mice (Example XXI); settings: mouse, in vivo, Table 7, male mice of about 20 g
# Text: An emulsion prepared by diluting with water the present compounds 31, 32, 33, 34, 35, 46, 63, in the form of an emulsifiable concentrate was orally administrated to male mice of about 20 g in body weight.
# adults of houseflies = assay: Oil preparation sprayed on Campbell's turn table (Example XX); assay type: in vivo, housefly; settings: Musca domestica, 24 h; Table 6; 1% oil preparation 5 ml, 10 minutes exposure, next day
# Method: The oil preparation obtained as in Example B (5 ml) was sprayed by the use of a Campbell's turn table [Soap & Sanitary Chemicals, Vol. 14, No. 6, 119 (1938) ] on 100 adults of houseflies were exposed to the spray for 10 minutes. The houseflies were then allowed to stand with feeding. On the next day, dead and alive were observed.
# tobacco cut worm = assay: Dust on Chinese cabbages in the field (Example XVIII); assay type: in vivo; settings: 5% dust, 3kg/10 ares, for 2 months
# Text: Each 5% dust of the present compounds 31, 32, 62, 63 was spread in a ratio of 3kg/10 ares on the Chinese cabbages of 40 days after sowing in the field. And about 9,000 eggs of tobacco cut worm were put on the leaves of the Chinese cabbages per 10 ares every 5 days for a month.
# adult planthoppers = assay: Residual effect on sprayed rice seedlings (Example XV); assay type: in vivo; settings: concentrate diluted to 400 times; observed 24 hours after release
# Method: About 20 rice seedlings, cultivated for 20 days after sowing in a flower pot of 8.5 cm in diameter, were sprayed with each of the emulsifiable concentrates obtained as in Example X which were diluted to 400 times with water. After air-drying, each pot was covered with a wire cage, into which 20 adult planthoppers were released as time elapsed. And the observation was made after 24 hours.
# [3] = tested on: leafhoppers of resistant and susceptible strains; assay: Emulsion sprayed on rice seedlings, leafhoppers released (Example XVI); assay type: in vivo, leafhopper; settings: emulsion diluted to 50 times
# Method: About 20 rice seedlings, cultivated for 20 days after sowing in a flower pot of 8.5 cm in diameter were sprayed with each of the present compounds (31, 32, 35, 39, 40, 42, 45, 48, 55, 59, 60, 63, 131 - 134, 139) in the form of an emulsion which were diluted to 50 times. Each pot was put into the beaker and covered with gauze, into which leafhoppers of resistant and susceptible strains, respectively, were released in each beaker. And the number of knocked down insects after 1 hour and the mortality after 24 hours were counted. As a result, the knock down per centage was more than 50% and the mortality was more than 80% in each case.
# [4] = tested on: Full grown larvae of the Northern house mosquito; assay: Larvicidal test in beaker with diluted emulsifiable concentrate (Example XIX); assay type: in vivo; settings: Table 5; after 24 hours
# Method: 30 Full grown larvae of the Northern house mosquito were released into the beaker with 200 ml of dilution of each emulsifiable concentrates which obtained in Example X.
# housefly adults = assay: Oil spray, Campbel's turn table, lethal concentration (Test Example 2); assay type: in vivo; settings: Musca domestica, 24 h
# Method: A group of about 100 housefly adults was exposed to descending spray for 10 minutes, thereafter was transferred to an observation cage, was fed, and was allowed to stand at room temperature.
# After a day, the dead and alive were counted to calculate the lethal ratio.
# [5] = Table 3a, oil spray 5 ml, 10 minutes exposure, counted after a day, read-out: LC50
smiles,measurement,setting,value
"C#CC(OC(=O)C1C(C)(C)C1(C)C)C(C)=CC (stereo not drawn) [Compound 11, 1-Ethynyl-2-methyl-2-butenyl 2',2',3',3'-tetramethylcyclo-propanecarboxylate]",larvae dead after 48 hrs,[1],more than 90%
"C#CC(OC(=O)C1C(C=C2CCCC2)C1(C)C)C(C)=CCC (stereo not drawn) [Compound 28, 1-Ethynyl-2-methyl-2-pentenyl 2',2'-dimethyl-3'-cyclopentylidene-methylcyclopropanecarboxylate]",larvae dead after 48 hrs,[1],more than 90%
"C#CC(C=Cc1ccccc1)OC(=O)C1C(C=C(C)C)C1(C)C (stereo not drawn) [Compound 31, α-Ethynylcinnamyl chrysanthemate]",LD50 at 48 h,[2],> 500 mg/kg
same,mortality at 1 %,adults of houseflies,92%
same,damage of the Chinese cabbages by tobacco cut worms,tobacco cut worm,the damage of the Chinese cabbages by tobacco cut worms was not found
same,Mortality (%) After 1 day,adult planthoppers,100%
same,Mortality (%) After 6 days,adult planthoppers,75.8%
same,knock down percentage after 1 hour,[3],more than 50%
same,mortality after 24 hours,[3],more than 80%
same,LC50,[4],0.12 ppm
"C#CC(OC(=O)C1C(C=C(C)C)C1(C)C)C(C)=Cc1ccccc1 (stereo not drawn) [Compound 32, α-Ethynyl-β-methylcinnamyl chrysanthemate]",LD50 at 48 h,[2],> 500 mg/kg
same,mortality at 1 %,adults of houseflies,96%
same,damage of the Chinese cabbages by tobacco cut worms,tobacco cut worm,the damage of the Chinese cabbages by tobacco cut worms was not found
same,Mortality (%) After 1 day,adult planthoppers,100%
same,Mortality (%) After 6 days,adult planthoppers,100%
same,knock down percentage after 1 hour,[3],more than 50%
same,mortality after 24 hours,[3],more than 80%
same,LC50,[4],0.069 ppm
"C#CC(OC(=O)C1C(C=C(C)C)C1(C)C)C(C)=Cc1ccc(C)cc1 (stereo not drawn) [Compound 33, α-Ethynyl-β-methyl-4-methylcinnamyl chrysanthemate]",LD50 at 48 h,[2],> 600 mg/kg
same,LC50,[4],0.34 ppm
"C#CC(OC(=O)C1C(C=C(C)C)C1(C)C)C(C)=Cc1ccccc1Cl (stereo not drawn) [Compound 34, α-Ethynyl-β-methyl-2-chlorocinnamyl chrysanthemate]",LD50 at 48 h,[2],> 600 mg/kg
same,LC50,[4],0.14 ppm
"C#CC(OC(=O)C1C(C=C(C)C)C1(C)C)C(C)=Cc1ccc2c(c1)OCO2 (stereo not drawn) [Compound 35, α-Ethynyl-β-methyl-3,4-methylenedioxycinnamyl chrysanthemate]",LD50 at 48 h,[2],> 600 mg/kg
same,knock down percentage after 1 hour,[3],more than 50%
same,mortality after 24 hours,[3],more than 80%
"C#CC(OC(=O)C1C(C)(C)C1(C)C)C(C)=Cc1ccccc1 (stereo not drawn) [Compound 39, α-Ethynyl-β-methylcinnamyl 2,2,3,3-tetramethyl-cyclopropanecarboxylate]",Mortality (%) After 1 day,adult planthoppers,100%
same,Mortality (%) After 6 days,adult planthoppers,85.0%
same,knock down percentage after 1 hour,[3],more than 50%
same,mortality after 24 hours,[3],more than 80%
C#CC(OC(=O)C1C(C=C2CCCC2)C1(C)C)C(C)=Cc1ccccc1 (stereo not drawn) [Compound 40],Mortality (%) After 1 day,adult planthoppers,100%
same,Mortality (%) After 6 days,adult planthoppers,66.7%
same,knock down percentage after 1 hour,[3],more than 50%
same,mortality after 24 hours,[3],more than 80%
"C#CC(OC(=O)C1C(C=C(C)C)C1(C)C)C(C)=Cc1ccc(C(C)C)cc1 (stereo not drawn) [Compound 46, α-Ethynyl-β-methyl-4-iso-propylcinnamyl chrysanthemate]",LD50 at 48 h,[2],> 600 mg/kg
"C#CC(C=CCc1ccccc1)OC(=O)C1C(C=C(C)C)C1(C)C (stereo not drawn) [Compound 62, α-Ethynyl-γ-benzylallyl chrysanthemate]",mortality at 1 %,adults of houseflies,93%
same,damage of the Chinese cabbages by tobacco cut worms,tobacco cut worm,the damage of the Chinese cabbages by tobacco cut worms was not found
same,Mortality (%) After 1 day,adult planthoppers,100%
same,Mortality (%) After 6 days,adult planthoppers,100%
same,LC50,[4],0.034 ppm
"C#CC(OC(=O)C1C(C=C(C)C)C1(C)C)C(=Cc1ccccc1)CC (stereo not drawn) [Compound 63, α-Ethynyl-β-ethylcinnamyl chrysanthemate]",LD50 at 48 h,[2],> 600 mg/kg
same,mortality at 1 %,adults of houseflies,95%
same,damage of the Chinese cabbages by tobacco cut worms,tobacco cut worm,the damage of the Chinese cabbages by tobacco cut worms was not found
same,Mortality (%) After 1 day,adult planthoppers,100%
same,Mortality (%) After 6 days,adult planthoppers,53.3%
same,knock down percentage after 1 hour,[3],more than 50%
same,mortality after 24 hours,[3],more than 80%
same,LC50,[4],0.14 ppm
"C#CC(C#CCC=C)OC(=O)C1C(C=CC=C)C1(C)C (stereo not drawn) [Compound 92, 1-Ethynylhexa-2-yn-5-en-1-yl 2',2'-dimethyl-3'-(1"",3""- butadienyl)cyclopropane-carboxylate]",larvae dead after 48 hrs,[1],more than 90%
"C#CC(C#CCC=C)OC(=O)C1C(C=C2CCCC2)C1(C)C (stereo not drawn) [Compound 94, 1-Ethynylhexa-2-yn-5-en-1-yl 2',2'-dimethyl-3-'-cyclopentylidene-methylcyclopropanecarboxylate]",larvae dead after 48 hrs,[1],more than 90%
"C#CC(C#CCC=C)OC(=O)C1C(C=C(Cl)Cl)C1(C)C (stereo not drawn) [Compound 95, 1-Ethynylhexa-2-yn-5-en-1-yl 2',2'-dimethyl-3'-(2"",2""- dichlorovinyl)cyclopropane-carboxylate]",larvae dead after 48 hrs,[1],more than 90%
"C#CC(OC(=O)C1C(C=C(C)C)C1(C)C)C(=CC1=CCCC1)CC (stereo not drawn) [Compound 109, 1-Ethynyl-2-ethyl-3-(1'-cyclopentenyl)allyl chrysanthemate]",LC50,housefly adults; [5],340 µg/mL
same,larvae dead after 48 hrs,[1],more than 90%
"C#CC(OC(=O)C1C(C=C2CCCC2)C1(C)C)C(C)=CCC1=CCCC1 (stereo not drawn) [Compound 111, 1-Ethynyl-2-methyl-4-(1'-cyclopentenyl)-2-butenyl 2"",2""- dimethyl-3""-cyclopentylidene-methylcyclopropanecarboxylate]",LC50,housefly adults; [5],410 µg/mL
same,larvae dead after 48 hrs,[1],more than 90%
"C#CC(OC(=O)C1C(C=C(Cl)Cl)C1(C)C)C(C)=CC (stereo not drawn) [Compound 130, 1-Ethynyl-2-methyl-2-butenyl 2',2'-dimethyl-3'-2',2""-dichlorovinyl-cyclopropanecarboxylate]",LC50,housefly adults,1500 µg/mL
"C#CC(OC(=O)C1C(C=C(Cl)Cl)C1(C)C)C(C)=Cc1c(C)cc(OC)cc1C (stereo not drawn) [Compound 136, α-Ethynyl-β-methyl-2,6- -dimethyl-4-methoxy cinnamyl 2',2'-dimethyl-3'2""-2""- dichlorovinyl)-cyclopropane-carboxylate]",mortality at 1 %,adults of houseflies,90%
C#CC(OC(=O)C1C(C=C(Cl)Cl)C1(C)C)C(C)=Cc1ccc(C#N)cc1 (stereo not drawn) [Compound 137],mortality at 1 %,adults of houseflies,100%
C#CC(C=C(c1ccccc1)c1ccccc1)OC(=O)C1C(C=C(Cl)Cl)C1(C)C (stereo not drawn) [Compound 138],mortality at 1 %,adults of houseflies,100%
"C#CC(OC(=O)C1C(C=C(Cl)Cl)C1(C)C)C(C)=Cc1ccc2c(c1)OCO2 (stereo not drawn) [Compound 139, α-Ethynyl-β-methyl-3,4-methylenedioxy-cinnamyl 2',2'-dimethyl-3'-(2"",2""-dichlorovinyl)-cyclopropanecarboxylate]",mortality at 1 %,adults of houseflies,95%
same,knock down percentage after 1 hour,[3],more than 50%
same,mortality after 24 hours,[3],more than 80%
"C#CC(C#CCOC)OC(=O)C1C(C=C(Cl)Cl)C1(C)C (stereo not drawn) [Compound 142, 1-Ethynyl-4-methoxy-2-butyn-1-yl 2',2'-dimethyl-3'-(2"",2""- dichlorovinyl)-cyclopropane-carboxylate]",LC50,housefly adults; [5],1200 µg/mL
"C#CC(C#CCC=C)OC(=O)C1C(C=C(Cl)Cl)C1(C)C (stereo not drawn) [Compound 143, 1-Ethynyl-4-vinyl-2-butyn-1-yl 2',2'-dimethyl-340-(2"",2""-dichloro-vinyl)-cyclopropanecarboxylate]",LC50,housefly adults; [5],820 µg/mL
"C#CC(C#CCOc1ccccc1)OC(=O)C1C(C=C(Cl)Cl)C1(C)C (stereo not drawn) [Compound 144, 1-Ethynyl-4-phenoxy-2-butyn-1-yl 2',2'-dimethyl-3'-(2"",2""-dichlorovinyl)-cyclopropanecarboxylate]",LC50,housefly adults; [5],290 µg/mL
"CNC(=O)Oc1ccc(C)c(C)c1 [Meobal, 3,4-Dimethylphenyl-N-methylcarbamate, reference compound]",Mortality (%) After 1 day,adult planthoppers,100%
same,Mortality (%) After 6 days,adult planthoppers,40.0%
